According to paper PMC10095864, “Targeting HIV-1 Reverse Transcriptase Using a Fragment-Based Approach” (Molecules, 2023):
Like-named read-outs stand apart in the source and are kept apart here.

Legend:
[1] = target: T1, recombinant WT HIV-1 RT (Human immunodeficiency virus type 1 group M subtype B, UniProt P03367); assay: biochemical; conditions: for IC50: RT Inhibition—IC50 ± SEM, WT RT DDDP activity; for fold improvement on parent compound B-1: IC50 vs B-1 IC50 >1000 μM in the radioactive RT assay; for Ligand efficiency (LE): binding to WT RT, LE = −1.4(logIC50)/N
T1 construct: The p66/p51 HIV-1 RT heterodimer engineered with a N-terminal histidine tag; His tag (histidine tag) (N); made in house; host or cells: Escherichia coli strain M15 (vector pRT6H-PR)
Description: (§1) The inhibitory activity of all compounds was evaluated in vitro in assays that measure the DNA-dependent DNA polymerase (DDDP) activity of HIV-1 RT. Compounds were tested against recombinant WT and drug-resistant HIV-1 RT mutants (K103N, Y181C or K103N/Y181C). […] The IC50 value of nevirapine was determined in parallel to control for the performance of the assay. […] These RT mutations either reduce the rate of entry of NNRTIs to the binding pocket (K103N) or remove aromatic interactions that favor binding (Y181C). Initially, compound IC50 values were determined in an assay that quantifies DDDP activity mediated by HIV-1 RT using a radiolabeled ^33PdTTP substrate and more recently using a nonradioactive PicoGreen-based spectrophotometric assay.
(§2) Recombinant HIV-1 RT: The p66/p51 HIV-1 RT heterodimer engineered with a N-terminal histidine tag was expressed from the pRT6H-PR vector (provided by Nicolas Sluis-Cremer) which is based on pRT6H-PROT [37], except that the RT coding region is derived from the infectious molecular clone xxLAI [38]. This xxLAI clone contains the HIV-1LAI backbone and is engineered with silent mutations introducing Xma I and Xba I sites in the RT coding region at nucleotide positions 40–45 and 1470 to 1475, respectively. pRT6H-PR expressing the NNRTI drug-resistant mutations K103N, Y181C and K103N/Y181C were generated by subcloning Xma I/Xba I fragments in xxLAI harboring the desired NNRTI mutations (Giacobbi NS and Sluis-Cremer 2017 AAC) into the corresponding restriction sites in the RT coding region of p6HRT-PR. RT was expressed in Escherichia coli strain M15 and purified using Ni-NTA chromatography as previously described. RT concentrations were determined spectrophotometrically at 280 nm using an extinction coefficient (e280) of 260, 450 M^−1 cm^−1.
(§3) Nevirapine was included in assays as a positive control for inhibiting RT polymerase activity. The DDDP assay was performed by first adding 25 ng of HIV-1 RT to test compound in 96-well plates followed by initiating RT polymerase activity by adding 200 ng of activated calf thymus (ACT) DNA (Sigma Aldrich), 0.2 µCi ^33P-α-dTTP (Perkin Elmer), 50 mM Tris-HCl pH 7.8 50 mM KCl, […], 50 µM dNTP mix (Bioline), 0.1 mg/mL bovine serum albumin (New England Biolabs), 0.01% IGEPAL (Sigma) and 1 mM dithiothreitol. Reactions contained 2.5% dimethyl sulfoxide (DMSO). Following incubation at 37 °C for 10 min, samples from duplicate wells were applied to Whatman DE81 ion-exchange paper (GE Healthcare); dried membranes were washed in 2X saline-sodium citrate (SSC) buffer; and incorporated counts were quantified using an FLP-2000 phosphorimager (Fujifilm) or Typhoon Trio Phosphorimager (GE Healthcare) as published. Dose–response curves were generated using PRISM GraphPad version 8 by plotting the log transformed drug concentrations against percentage inhibition of DDDP activity compared to the no drug control using non-linear regression analysis.
(§4) Non-radioactive DDDP Assay: DDDP assays were also performed using a PicoGreen based spectrophotometric assay to detect double-stranded DNA synthesized by recombinant HIV-1 RT [15]. Assays were performed as described for the […] DDDP assay except that instead of ACT, the reaction contained 40 nM of a template/primer comprising a 200 nt DNA template (5′-[…] […]-3′) annealed to a 18 nucleotide DNA primer (5′-[…]-3′), 50 mM Tris-HCl pH 7.8, 50 mM KCl, 10 mM MgCl2 and 50 µM dNTP mix.

[2] = target: T2, His-tagged HIV-1 RT WT (Human immunodeficiency virus type 1 group M subtype B, UniProt P03367); assay: Surface plasmon resonance, WT RT; type: binding
T2 construct: The p66/p51 HIV-1 RT heterodimer engineered with a N-terminal histidine tag; His tag (histidine tag) (N); made in house; host or cells: Escherichia coli strain M15 (vector pRT6H-PR)
Description: (§5) Compound binding to recombinant HIV-1 RT was measured by surface plasmon resonance (SPR). SPR is an optical biosensor detection method that involves passing an analyte (often a fragment) in a buffer solution over a gold surface chip with an immobilized protein (RT enzyme) and detecting the change in plasmon resonance angle which is dependent on the refractive index of the medium near the surface. As compounds bind to the target protein, the refractive index changes proportionally to the extent of binding. This can then be used to measure the association and dissociation kinetics of binding as well as the compound’s affinity for binding.
(§6) SPR assays were performed on a Biacore S200 (GE Healthcare). His-tagged RT (WT, K103N, Y181C or K103N/Y181C) was immobilized on the surface of a Biacore compatible NIHC 1500M (Xantec) chip according to manufacturer’s instructions. Following 3 injections 300 s each of 0.5 M EDTA, the chip surface was activated with a 120 s injection of 5 mM NiCl2 followed by a 2100 s injection of 130 nM RT. The final immobilization level of RT was typically 14,000–27,000 RU. SPR experiments were carried out at 25 °C using a flow rate of 50 µL/min in running buffer. The running buffer was 1.053 × (HBS pH 7.4 + 50 µM EDTA + 0.005% Tween-20). Compounds were provided as 200 mM stocks and diluted in running buffer to obtain the concentrations required for dose-response studies (0, 6.25, 12.5, 25, 50, 100 and 200 µM). Raw sensorgram data were analyzed using Biacore S200 Evaluation Software. Dose-response determinations were evaluated using a 1:1 binding model. KD values were determined by Biacore S200 Evaluation Software Version 1.0. assuming 1:1 binding. For compounds approaching saturation, Rmax was floated. For compounds with insufficient curvature, Rmax was fixed based on a control. Errors were determined as the standard error in the dose-response fit, as calculated by Biacore S200 Evaluation Software.

[3] = target: T3, His-tagged HIV-1 RT K103N (Human immunodeficiency virus type 1 group M subtype B, UniProt P03367, K702N); assay: Surface plasmon resonance, K103N RT; conditions: ± standard error of dose–response fit, n = 1; NB = no binding observed; read-out: SPR—KD, K103N
T3 construct: The p66/p51 HIV-1 RT heterodimer engineered with a N-terminal histidine tag; His tag (histidine tag) (N); made in house; host or cells: Escherichia coli strain M15 (vector pRT6H-PR)
Description: as §5, §6

[4] = target: T4, HIV-1 RT K103N/Y181C mutant (Human immunodeficiency virus type 1 group M subtype B, UniProt P03367, K702N/Y780C); assay: DDDP activity assay, K103N/Y181C RT mutant; type: biochemical
T4 construct: The p66/p51 HIV-1 RT heterodimer engineered with a N-terminal histidine tag; His tag (histidine tag) (N); made in house; host or cells: Escherichia coli strain M15 (vector pRT6H-PR)
Description: as §1, §2, §3, §4

[5] = WT, PicoGreen or 33P radiolabeled assay, value not marked as PicoGreen, n ≥ 2
[6] = WT (PicoGreen assay), nonradioactive PicoGreen assay

Q: How did the IC50 [1, 5] turn out when `CCOC(=O)c1cnn2ccc(C(=O)OC)cc12` [compound 15, 3-Ethyl 5-Methylpyrazolo[1,5-a]pyridine-3,5-dicarboxylate] was run?
A: > 1000 µM

Q: For `CCOC(=O)c1cnn2ccc(NC(=O)OC(C)(C)C)cc12` [compound 16, Ethyl 5-((Tert-butoxycarbonyl)amino)pyrazolo[1,5-a]pyridine-3-carboxylate], which IC50 [1, 5] is on record?
A: > 1000 µM

Q: Which results are given for `O=C(O)c1cnn2cccc(Br)c12` [compound 17, 4-Bromopyrazolo[1,5-a]pyridine-3-carboxylic Acid]?
A: IC50 [1, 5]: > 1000 µM; Kd ([2]; read-out: SPR—KD, WT, ± standard error of dose–response fit, n = 1, NB = no binding observed): > 200 µM

Q: For `COC(=O)c1cnn2cccc(Br)c12` [compound 18, Methyl 4-Bromopyrazolo[1,5-a]pyridine-3-carboxylate], which IC50 [1, 6] is on record?
A: > 1000 µM

Q: Which IC50 [1, 6] does the source give for `CCCOC(=O)c1cnn2cccc(Br)c12` [compound 19, Propyl 4-bromopyrazolo[1,5-a]pyridine-3-carboxylate] here?
A: > 1000 µM

Q: Which IC50 [1, 5] does the source give for `CCNC(=O)c1cnn2cccc(Br)c12` [compound 20, 4-Bromo-N-ethylpyrazolo[1,5-a]pyridine-3-carboxamide] here?
A: > 1000 µM

Q: With `O=C(NCCc1ccc(O)cc1)c1cnn2cccc(Br)c12` [compound 22, 4-Bromo-N-(4-hydroxyphenethyl)pyrazolo[1,5-a]pyridine-3-carboxamide] as the compound, how does the IC50 [1, 6] read?
A: 111 µM

Q: With `CCOC(=O)c1cnn2cccc(C#CCN(C)C)c12` [compound 24, Ethyl 4-(3-(Dimethylamino)prop-1-yn-1-yl)pyrazolo[1,5-a]pyridine-3-carboxylate] as the compound, how does the IC50 [1, 5] read?
A: > 1000 µM

Q: For `CCOC(=O)c1cnn2cccc(C#CCCO)c12` [compound 25, Ethyl 4-(4-Hydroxybut-1-yn-1-yl)pyrazolo[1,5-a]pyridine-3-carboxylate], which IC50 [1, 5] is on record?
A: > 1000 µM

Q: For `CCOC(=O)c1cnn2cccc(C#CCCCCCO)c12` [compound 26, Ethyl 4-(7-Hydroxyhept-1-yn-1-yl)pyrazolo[1,5-a]pyridine-3-carboxylate], which “fold improvement on parent compound B-1” value [1] is on record?
A: > 20 fold

Q: What about the IC50 [1, 5] of the same compound?
A: 24 ± 6 µM

Q: What about the “Ligand efficiency (LE)” value [1] of the same compound?
A: 0.30 kcal/mol/HA

Q: And the Kd [3]?
A: 233 ± 22 µM

Q: What about the Kd [2] of the same compound?
A: 173 ± 9 µM

Q: What about the IC50 [4] of the same compound?
A: 35 ± 7 µM

Q: What does the source list for `CCCC#Cc1cccn2ncc(C(=O)OCC)c12` [compound 28, Ethyl 4-(pent-1-yn-1-yl)pyrazolo[1,5-a]pyridine-3-carboxylate]?
A: fold improvement on parent compound B-1 [1]: > 20 fold; IC50 [1, 5]: 53 ± 4 µM; Ligand efficiency (LE) [1]: 0.32 kcal/mol/HA; Kd [2]: 275 ± 9 µM; IC50 [4]: 105 ± 6 µM

Q: Which results are given for `C#Cc1cccn2ncc(C(=O)OCC)c12` [compound 29, Ethyl 4-ethynylpyrazolo[1,5-a]pyridine-3-carboxylate]?
A: fold improvement on parent compound B-1 [1]: > 20 fold; IC50 [1, 5]: 27 ± 26 µM; Ligand efficiency (LE) [1]: 0.40 kcal/mol/HA; Kd [2]: 395 ± 35 µM; IC50 [4]: 43 ± 14 µM
